How the values were obtained:
[1] = system: mutated form of PCSK7 3′-UTR; test: Luciferase reporter assay, miRNA target site-deleted PCSK7 3′-UTR, HEK293T cells; format: cell-based, human
Source text: The interactions between the miRNAs and their probable targets on PCSK7 were explored by cloning the potential target regions in psiCHECK-2™ (Promega, USA), a luciferase reporter vector. In psiCHECK-2™, hRluc, the Renilla luciferase gene, is located upstream of the target regions of interest cloned into the psiCHECK-2™ vector downstream of the Renilla gene. The region corresponding to the 3′-UTR of PCSK7 (926-nt sequences in length) that constituted the predicted miRNA response elements was PCR-amplified and cloned downstream of the Renilla luciferase gene in the psiCHECK-2™ vector (Promega, USA). For the confirmation of whether miRNA response elements (miRNA target sites) on the 3′-UTR of PCSK7 were active and had direct interactions with the miRNAs, different mutants (plasmids) were constructed via splicing by over-hang-extension (SOEing) PCR. For miR-125a-5p and miR-143-3p, each of which has two miRNA response elements on PCSK7 3′-UTR, three different mutant constructs were built. Two constructs were made by deleting a putative miRNA target site, and the third one was made by omitting both putative miRNA target sites in the 3′-UTR sequence of PCSK7. In the miR-409-3p mutant construct, a putative miRNA target site was deleted from the 3′-UTR sequence.
The HEK293T cells were co-transfected through the application of the wild-type psiCHECK-2, the wild-type PCSK7 3′-UTR, the mutant PCSK7 3′-UTR, and the miR-overexpressing vectors so that the direct interactions of the nominated miRNAs with PCSK7 3′-UTR could be investigated. In brief, 150 ng of the wild-type or mutated 3′-UTR constructs and 300 ng of the miRNA-expressing vectors were co-transfected in HEK293T-cultured 48-well plates using FuGENE™ (Invitrogen, USA). Additionally, the psiCHECK-2 and pEGFP-C1 mock vectors were transfected and utilized as controls for luciferase assay and transfection, respectively. Transfection efficiency was monitored by fluorescent microscopy (Nikon TE2000S, Japan) 36 hours following the procedure.
The PsiCHECK-2 reporter construct plasmid contained the Renilla luciferase gene upstream of PCSK7 3′-UTR and an independent firefly luciferase gene as an internal control for normalization. Forty-eight hours after HEK293T co-transfection, the luciferase reporter assay was carried out employing the Dual-Luciferase Reporter Assay System (Promega, USA) with a luminometer (Titertek-Berthold, Germany) in accordance with the manufacturer's protocol. Each sample was performed in triplicate, and the experiment was repeated at least three biological times. In short, a lysis buffer was added to each well after the removal of the media of the cell. Then, LARII Reagent was added, and after 20 minutes, the firefly luciferase activity was measured as a control. Afterward, Renilla activity was determined using Stop & Glo Reagent. The relative luciferase activity was calculated using the following formula: ΔFold Activity of Luciferase (Renilla/Firefly)=Average Renilla/Firefly from Samples A/B.
A luciferase reporter assay further confirmed that miR-125a-5p, miR-143-3p, and miR-409-3p directly targeted the 3′-UTR of the PCSK7 transcript since the negative regulatory effect was lost upon the deletion of the miRNA target sites (miR-125a-5p, miR-143-3p, and miR-409-3p) on the 3′-UTR of the PCSK7 reporter plasmid (FIGS. 28A-B). In this regard, three different mutated miR plasmids were constructed for both miR-125a-5p and miR-143-3p. Single-target sites of each miRNA were omitted individually in two separate plasmids, and the two putative binding sites of the miRNAs were deleted in the other plasmid.

human PC7 = test: Western blot of overexpressed PC7 protein in Huh7 cells co-transfected with miRNA vectors; format: cell-based
Experimental: In the next step, the effect of miR-125a-5p on PC7 function was determined. First, the miR-125a-5p-overexpressing vector and its related mock plasmids were co-transfected with the pIRES vector (Invitrogen, USA), containing the full length of cDNA encoding the PCSK7 mRNA with the complete 3′-UTR in Huh7 cells. The western blot analysis was performed 48 hours after transfection. Thereafter, the impact of miR-125a-5p on the enzymatic function of PC7 was assessed by co-transfecting Huh7 cells with the miR-125a-5p-overexpressing vector, with that coding for the full length of PCSK7, and a plasmid encoding hTfR1 (Guillemot et al., 2013; Durand et al., 2020). […]
Subsequently, proteins were isolated with an ice-cold RIPA buffer (1×), comprising 50 mM of Tris hydrochloride (pH 8), 150 mM of sodium chloride, 0.1% sodium dodecyl sulfate, 1% Nonidet P40, 0.25% sodium deoxycholate, and a cocktail of protease inhibitors (Roche, Oakville, ON, Canada). […] Both PC7 and TfR1 were C-terminally tagged with V5 and detected with a V5-monoclonal antibody (Invitrogen) and membranes were incubated with appropriate primary and secondary antibodies, as reported (Guillemot et al., 2013). Subsequently, immunoreactive bands (the signal) were visualized with an enhanced chemiluminescent reaction kit (Bio-Rad, USA) and recorded via chemiluminescence. […]

**Q.** Which relative luciferase activity ([1]; Mut-a, deletion of the first target site) does the source give for “miR-125a-5p: miRNA targeting PCSK7 3′-UTR and exons 14 and 15, overexpressed from pEGFP-C1 precursor vector (UCCCUGAGACCCUUUAACCUGUGA; miRNA expressed from a pEGFP-C1 precursor vector, further chemistry not given here)” here?
**A.** Its relative luciferase activity is “still decreased”.

**Q.** What about the relative luciferase activity ([1]; Mut-a,b, deletion of both miRNA target sites) of the same substance?
**A.** Its relative luciferase activity is “failed to significantly decrease”.

**Q.** And the relative luciferase activity ([1]; Mut-b, deletion of the second target site)?
**A.** Its relative luciferase activity is “still decreased”.

**Q.** And the “fall of overexpressed PC7 protein levels” value (human PC7; Huh7, 48 hours post-transfection, vs mock (pEGFP-C1) and miR-224-5p controls)?
**A.** The value was ~80%.

**Q.** What about the “decrease of PC7 protein levels” value (human PC7; Huh7, PC7:miR-125a-5p DNA ratios 1:2, 1:3 and 1:5, all three ratios) of the same substance?
**A.** Its value is > 80%.
